Source: patent US12617752B2, “Rapidly metabolized lipid compound” (Beijing Jitai Life Sciences Ltd, priority 2023, dated 2026)

How the values were obtained:
C57BL/6 mice = test: In vivo delivery of luciferase mRNA lipid nanoparticles in mice (bioluminescence imaging); conditions: intravenous, single dose 0.5 mg/kg luciferase mRNA
Summary of the method: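 Female C57BL/6 mice, 6-8 weeks old, received luciferase mRNA lipid nanoparticles as a single intravenous dose of 0.5 mg/kg mRNA. At 6 h, D-luciferin given intraperitoneally; 10 min later, mice were imaged under isoflurane anaesthesia. Values are group mean fluorescence intensity and total photon count.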

[1] = Encapsulation efficiency of lipid nanoparticles (Quant-it RiboGreen RNA Assay); format: physicochemical; conditions: lipid nanoparticles with luciferase mRNA
Summary of the method: (§1)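 LNPs of ionizable lipid/cholesterol/phospholipid/PEG-lipid (50/38.5/10/1.5 mol%, N/P 6) were formed by microfluidic mixing with mRNA in pH 4.5 acetate, then buffer-exchanged by ultrafiltration. Size and PDI were measured by DLS. Encapsulation came from RiboGreen fluorescence (485/528 nm) in TE pH 7.5, with and without 0.5% Triton at 37 °C for 30 min.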

[2] = Particle size and PDI of lipid nanoparticles by dynamic light scattering; format: physicochemical; conditions: lipid nanoparticles with luciferase mRNA; ionizable lipid/cholesterol/DSPC/DMG-PEG2000 50/38.5/10/1.5 mol%
Summary of the method: as §1

Structure (SMILES)	Total photon count in vivo at 6 hours after administration (Total Flux) (C57BL/6 mice)	Encapsulation efficiency (%) [1] [%]	Particle size (nm) [2] [nm]	Particle-size distribution (PDI) [2]
CCCCCCCCCCCC(=O)OCC(C)(C)CCCCCN(CCCCO)CCCCCCC(=O)OCC(CCCCCCCCCC)CCCCCCCCCC [91b]	8.66E+10	91.95	96.43	0.12
CCCCCCCCCC(=O)OCCCC(C)(C)CCCN(CCCO)CCCCCCC(=O)OCCC(CCCCCCC)CCCCCCC [92b]	3.74E+10	92.47	99.90	0.15
CCCCCCCCCC(=O)OCCCC(C)(C)CCCN(CCCCO)CCCCCCC(=O)OCCC(CCCCCCC)CCCCCCC [93b]	2.45E+10	90.17	141.73	0.10
CCCCCCCCCC(=O)OCCCC(C)(C)CCCN(CCCCO)CCCCCCC(=O)OCCCC(CCCCCC)CCCCCC [94b]	2.23E+10	93.55	125.60	0.11
CCCCCCCCCCC(=O)OCCCC(C)(C)CCCN(CCO)CCCCCCC(=O)OCC(CCCCCCCCC)CCCCCCCCC [95b]	2.44E+10	95.41	84.62	0.15
CCCCCCCCCCC(=O)OCCCC(C)(C)CCCN(CCO)CCCCCCCCC(=O)OCC(CCCCCCC)CCCCCCC [96b]	3.77E+10	92.10	97.75	0.15
CCCCCCCCCCCC(=O)OCC(C)(C)CCCCCN(CCO)CCCCCCC(=O)OCC(CCCCCCCCCC)CCCCCCCCCC [97b]	9.01E+10	93.79	85.56	0.14
CCCCCCCCCCCC(=O)OCC(C)(C)CCCCCN(CCO)CCCCCCCCC(=O)OCC(CCCCCCCC)CCCCCCCC [98b]	1.07E+11	93.04	87.99	0.18
CCCCCCCCCCC(=O)OCCC(C)(C)CCCCN(CCO)CCCCCCCC(=O)OCC(CCCCCCCC)CCCCCCCC [99b]	4.78E+10	92.70	85.13	0.15
CCCCCCCCCCC(=O)OCCC(C)(C)CCCCN(CCCO)CCCCCCCC(=O)OCC(CCCCCCCC)CCCCCCCC [100b]	8.51E+10	91.14	101.50	0.12
CCCCCCCCCCC(=O)OCCC(C)(C)CCCCN(CCCCO)CCCCCCCC(=O)OCC(CCCCCCCC)CCCCCCCC [101b]	5.39E+10	81.76	126.00	0.10
CCCCCCCCCC(=O)OCCC(C)(C)CCCCN(CCO)CCCCCCC(=O)OCCC(CCCCCCC)CCCCCCC [102b]	7.52E+10	93.92	92.12	0.16
CCCCCCCCCC(=O)OCCC(C)(C)CCCCN(CCCO)CCCCCCC(=O)OCCC(CCCCCCC)CCCCCCC [103b]	5.95E+10	94.07	96.82	0.11
CCCCCCCCCC(=O)OCCC(C)(C)CCCCN(CCCCO)CCCCCCC(=O)OCCC(CCCCCCC)CCCCCCC [104b]	3.20E+10	91.51	135.57	0.09
CCCCCCCCC(=O)OCCC(C)(C)CCCCCN(CCO)CCCCCCC(=O)OCC(CCCCCCCC)CCCCCCCC [105b]	9.24E+10	94.38	89.73	0.16
CCCCCCCCCC(=O)OCCC(C)(C)CCCCCN(CCO)CCCCCCC(=O)OCC(CCCCCCCCC)CCCCCCCCC [106b]	1.42E+11	94.89	88.22	0.15
CCCCCCCCCC(=O)OCCC(C)(C)CCCCCN(CCO)CCCCCCCCC(=O)OCC(CCCCCCC)CCCCCCC [107b]	1.98E+11	94.05	88.13	0.16
CCCCCCCCCC(=O)OCCC(C)(C)CCCCCN(CCO)CCCCCCC(=O)OCCC(CCCCCCCC)CCCCCCCC [108b]	1.38E+11	94.16	86.61	0.16
CCCCCCCCCC(=O)OCCC(C)(C)CCCCCN(CCCCO)CCCCCCC(=O)OCCC(CCCCCCCC)CCCCCCCC [109b]	1.90E+11	93.00	95.32	0.13
CCCCCCCCC(=O)OCC(C)(C)CCCCCCN(CCO)CCCCCCC(=O)OCC(CCCCCCCC)CCCCCCCC [110b]	1.36E+11	85.48	133.93	0.21
CCCCCCCCCC(=O)OCCCC(C)(C)CCCN(CCO)CCCCCCCCC(=O)OCC(CCCCCC)CCCCCC [111b]	3.98E+10	63.26	187.13	0.21
CCCCCCCCCC(=O)OCCCC(C)(C)CCCN(CCCO)CCCCCCCCC(=O)OCC(CCCCCC)CCCCCC [112b]	1.31E+10	69.74	175.67	0.17
CCCCCCCCCC(=O)OCCCC(C)(C)CCCN(CCCCO)CCCCCCCCC(=O)OCC(CCCCCC)CCCCCC [113b]	2.09E+10	88.21	147.03	0.09
CCCCCCCCCCC(=O)OCCCC(C)(C)CCCN(CCCO)CCCCCCC(=O)OCC(CCCCCCCCC)CCCCCCCCC [114b]	4.53E+10	93.55	103.40	0.13
CCCCCCCCCCC(=O)OCCCC(C)(C)CCCN(CCCCO)CCCCCCC(=O)OCC(CCCCCCCCC)CCCCCCCCC [115b]	3.71E+10	93.91	100.25	0.12
CCCCCCCCCCC(=O)OCCCC(C)(C)CCCN(CCCCO)CCCCCCCCC(=O)OCC(CCCCCCC)CCCCCCC [116b]	1.96E+10	90.71	120.13	0.09
CCCCCCCCCC(=O)OCC(C)(C)CCCCCN(CCCCO)CCCCCCCC(=O)OCC(CCCCCCC)CCCCCCC [117b]	1.73E+10	72.51	151.17	0.09
